{"source": "patent US4487763A", "about": "“Peptide, process for preparation thereof and use thereof” (Fujisawa Pharmaceutical Co., Ltd., priority 1979, dated 1984)", "key": {"E. coli 22": {"tested_on": "E. coli 22", "test": "Protective efficacy in experimental infection in mice", "format": "in vivo", "details": "male ICR mice, survival after four days", "procedure": "In determining the protective efficacy against experimental infections in mice, the test compound was dissolved in and diluted with sterile saline to provide prescribed concentrations of drug.\nMale ICR-strain mice, aged 4 weeks were used in groups of ten mice. E. coli 22 was cultivated overnight at 37° C. on trypticase soy agar and then were suspended in a sterile saline to obtain microbial cell concentration of 9.0×10^7 CFU/ml. Mice were inoculated intraperitoneally with 0.2 ml of the suspension. Each of the test drugs was given intraperitoneally in various doses to a group of ten mice 24 hours before challenge.\nSurvival percent were found from the number of the surviving animals after four days of injection."}, "Mice (DDY male 5-6 W)": {"tested_on": "Mice (DDY male 5-6 W)", "test": "Blood stream clearance of carbon", "format": "in vivo", "details": "carbon clearance measured 24 hours later", "procedure": "1. Carbon suspension. Rotoring drawing ink (170 mg carbon/ml.) was diluted to 1/5 of the original concentration in saline containing 1% gelatin. 2. 0.1% aqueous sodium carbonate solution. Mice (DDY male 5-6 W) were injected via the tail vein with a dose of 0.01 ml/g body weight of carbon. Blood samples were taken by means of a pointed capillary […] calibrated to hold a 50 μl and previously washed in heparin. This was plunged into the retroorbital venous sinus at the nasal angle of the eye. The samples were removed at 3 and 6 min. The blood was immediately discharged into 3.0 ml. of the sodium carbonate solution. This hemolyzed the blood and allowed the quantitation of carbon. The samples were then read in a spectrophotometer at 660 nm, the log concentration being obtained from a previously determined standard curve. The clearance value K may be determined by plotting log carbon concentration against time according to the following relationship; [formula] in which T1 and T2 represent the time in min when the sample were withdrawn and C1 and C2 represent the concentrations of carbon in the blood at the time T1 and T2, respectively. The aqueous solution of the drug as given was administered subcutaneously to mice. Twenty four hours later, blood stream clearance of carbon was measured. K value obtained with treated mice was compared with that of control mice."}}, "data": [{"substance": "D-Lac-L-Ala-γ-D-Glu(α-OH)-(L)-[D-Lac-L-Ala-γ-D-Glu(α-OH)-(L)-mesoDAP-(D)-Gly]-(D)-mesoDAP-(L)-GlyOH [Example 13 (Step 2)]", "values": [{"measurement": "Survival (%)", "setting": "E. coli 22; dose 1 mg/kg intraperitoneally 24 hours before challenge", "value": 100, "unit": "%"}, {"measurement": "Survival (%)", "setting": "E. coli 22; dose 10 mg/kg intraperitoneally 24 hours before challenge", "value": 100, "unit": "%"}, {"measurement": "K treated/K control", "setting": "Mice (DDY male 5-6 W); dose 1 mg/mouse subcutaneously", "value": 0.6}, {"measurement": "K treated/K control", "setting": "Mice (DDY male 5-6 W); dose 100 mg/mouse subcutaneously", "value": 1.6}]}]}
